Results from US7829567B2, “Imino-indeno[1,2-c] quinoline derivatives, their preparation processes, and pharmaceutical compositions comprising the same” (Kaohsiung Medical University, priority 2007, dated 2010).
Where a name gives a salt, the structure may show the parent alone. Read-outs that look alike come from different tables or passages of the source.

Columns and labels:
Type in all cases: cell-based
[1] = tested on: human cervical epithelioid carcinoma (HeLa); assay: In vitro anticancer assay (MTT), HeLa; settings: HeLa cells, 48 hrs, mean ± spread, read-out: Anti-proliferative evaluation IC50, HeLa
Procedure: (§1) The resultant tetrazolium salt was then dissolved by the addition of dimethyl sulfoxide. Color was measured spectrophotometrically in a microtiter plate reader at 570 nm and used as a relative measure of viable cell number. The number of viable cells after treatment was compared to solvent and untreated control cells and used to determine the percent of control growth as (Abtreated/Abcontrol)×100, where Ab represents the mean absorbance (n=3). […] D. Heo et al. […] (+)-camptothecin (CPT) and doxorubicin hydrochloride (Dox) were used for comparison with the compounds according to this invention.

[2] = tested on: oral squamous cell carcinoma (SAS); assay: In vitro anticancer assay (MTT), SAS; settings: SAS cells, 48 hrs, mean ± spread, read-out: Anti-proliferative evaluation IC50, SAS
Procedure: as §1

[3] = tested on: hepatocellular carcinoma (SKHep1); assay: In vitro anticancer assay (MTT), SKHep1; settings: 48 hrs, mean ± spread, read-out: Anti-proliferative evaluation IC50, SKHep1
Procedure: as §1

[4] = tested on: human stomach adenocarcinoma (AGS); assay: In vitro anticancer assay (MTT), AGS; settings: AGS cells, 48 hrs, mean ± spread, read-out: Anti-proliferative evaluation IC50, AGS
Procedure: as §1

[5] = tested on: human renal clear cell carcinoma; assay: In vitro anticancer assay (MTT), RCC 768-O; settings: RCC 768-O cells, 48 hrs, mean ± spread, read-out: Anti-proliferative evaluation IC50, RCC 768-O
Procedure: as §1

[6] = tested on: esophageal carcinoma (CE81T); assay: In vitro anticancer assay (MTT), CE81T; settings: CE81T cells, 48 hrs, mean ± spread, read-out: Anti-proliferative evaluation IC50, CE81T
Procedure: as §1

[7] = Homo sapiens, SK-HEP1, SKHep1 cells

IC50 [1] | IC50 [2] | IC50 ([3]; SKHep1 cells) | IC50 [4] | IC50 [5] | IC50 [6] | IC50 ([1]; Homo sapiens) | IC50 [3, 7] | IC50 ([4]; Homo sapiens) | IC50 ([5]; Homo sapiens) | SMILES
 | 5.8 ± 0.5 µM |  |  |  | > 30 µM | 0.8 ± 0.3 µM | 1.6 ± 0.5 µM | 7.1 ± 0.8 µM | 4.5 ± 1.4 µM | COc1ccc2c(c1)C(=NOCCN1CCCCC1)c1c-2c(N2CCNCC2)nc2ccccc12 [Compound 6v, 9-Methoxy-6-(piperazin-1-yl)-11H-indeno[1,2-c]quinolin-11-one O-2-(piperidin-1-yl)ethyl oxime]
 | 5.7 ± 0.3 µM |  |  |  | 0.3 ± 0.1 µM | 0.4 ± 0.1 µM | < 0.1 µM | > 30 µM | 2.2 ± 0.3 µM | COc1cccc2c1C(=O)c1c(O)c3c(c(O)c1C2=O)C[C@@](O)(C(=O)CO)C[C@@H]3O[C@H]1C[C@H](N)[C@H](O)[C@H](C)O1 [Dox, doxorubicin hydrochloride, reference compound]
 | 5.5 ± 0.5 µM |  |  |  | 7.1 ± 0.3 µM | 2 ± 0.4 µM | 11.5 ± 5.4 µM | 14.3 ± 0.5 µM | > 30 µM | COc1ccc2c(c1)C(=O)c1c-2c(NCCCN(C)C)nc2ccccc12 [Compound 5i, 6-[3-(Dimethylamino)propylamino]-9-methoxy-11H-indeno[1,2-c]quinolin-11-one]
18 ± 8.1 µM | > 30 µM | 19.9 ± 10 µM | 21.4 ± 0.2 µM | > 30 µM | > 30 µM |  |  |  |  | COc1ccc2c(c1)C(=O)c1c-2c(N2CCN(C(=O)CN3CCOCC3)CC2)nc2ccccc12 [Compound 5uu]
 | 7.7 ± 1 µM |  |  |  | 0.4 µM | 6.2 ± 0.6 µM | 6.1 ± 0.8 µM | 8.1 ± 2.1 µM | 7.7 ± 0.5 µM | CON=C1c2ccccc2-c2c(N3CCNCC3)nc3ccccc3c21 [Compound 6j, 6-(Piperazin-1-yl)-11H-indeno[1,2-c]quinolin-11-one O-methyl oxime]

The remaining lines, values behind:

SMILES | IC50 [1] | IC50 [2] | IC50 ([3]; SKHep1 cells) | IC50 [4] | IC50 [5] | IC50 [6] | IC50 ([1]; Homo sapiens) | IC50 [3, 7] | IC50 ([4]; Homo sapiens) | IC50 ([5]; Homo sapiens)
COc1ccc2c(c1)C(=O)c1c-2c(N2CCN(C(=O)CCNCCN)CC2)nc2ccccc12 [Compound 5zz] | 11.4 ± 0.4 µM | > 30 µM | 19 ± 3.2 µM | 9 ± 2 µM | > 30 µM | > 30 µM |  |  |  | 
COc1ccc2c(c1OC)C(=O)c1c-2c(N2CCNCC2)nc2ccc(Cl)cc12 [Compound 5ff, 2-Chloro-9,10-dimethoxy-6-(piperazin-1-yl)-11H-indeno[1,2-c]quinolin-11-one] |  | 11 ± 3.2 µM |  |  |  | > 30 µM | 4.6 ± 0.7 µM | 4.7 ± 2.2 µM | 9.5 ± 2.7 µM | 6.9 ± 0.3 µM
COc1ccc2c(c1)C(=O)c1c-2c(N2CCN(C(=O)CCNCCNCCN)CC2)nc2ccccc12 [Compound 5ddd] | > 30 µM | > 30 µM | > 30 µM | 10.8 ± 0.2 µM | > 30 µM | > 30 µM |  |  |  | 
COc1ccc2c(c1)C(=O)c1c-2c(N2CCN(C(=O)CNCCCN(C)CCCN)CC2)nc2ccccc12 [Compound 5ss] | > 30 µM | > 30 µM | 21.5 ± 7 µM | 12.5 ± 5.2 µM | 10.8 ± 1.1 µM | > 30 µM |  |  |  | 
COc1ccc2c(c1)C(=O)c1c-2c(N2CCN(C(=O)CCNCCO)CC2)nc2ccccc12 [Compound 5aaa] | 3.1 ± 1.2 µM | 9.1 ± 1.6 µM | 4.5 ± 1.1 µM | 3.7 ± 0.5 µM | 2 ± 1.4 µM | 7.1 ± 0.9 µM |  |  |  | 
COc1ccc2c(c1)C(=O)c1c-2c(N2CCNC(C)C2)nc2ccccc12 (stereo not drawn) [Compound 5y] | 3.4 ± 1 µM | 13.4 ± 2.6 µM | 2.9 ± 0.5 µM | 7.9 ± 1.2 µM | 13.6 ± 5.5 µM | 3.3 ± 2.2 µM |  |  |  | 
CNCC(=O)N1CCN(c2nc3ccccc3c3c2-c2ccc(OC)cc2C3=O)CC1 [Compound 5kk] | 2 ± 0.6 µM | 7.4 ± 0.9 µM | 4.8 ± 2.1 µM | 7.2 ± 1.5 µM | 6.2 ± 1.9 µM | 2.3 ± 1.3 µM |  |  |  | 
COc1ccc(Nc2nc3ccccc3c3c2-c2ccc(OC)cc2C3=O)c(OC)c1 [Compound 5q] | > 30 µM | > 30 µM | > 30 µM | > 30 µM | > 30 µM | 22.7 ± 1.5 µM |  |  |  | 
CNCCC(=O)N1CCN(c2nc3ccccc3c3c2-c2ccc(OC)cc2C3=O)CC1 [Compound 5xx] | 1.9 ± 0.8 µM | 6.9 ± 0.7 µM | 9.1 ± 4.8 µM | 8.1 ± 1.1 µM | 6 ± 1.4 µM | 3.8 ± 0.6 µM |  |  |  | 
